For three molecules, Kd and Monomer (%) results are on record in paper PMC6338582, “rA1M-035, a Physicochemically Improved Human Recombinant α1-Microglobulin, Has Therapeutic Effects in Rhabdomyolysis-Induced Acute Kidney Injury” (Antioxidants & Redox Signaling, 2018).

Data set [1] has as its target T1, rA1M (recombinant human α1-microglobulin; rA1M-wt and rA1M-035) (Homo sapiens, UniProt P02760).
T1 construct: gene AMBP
T1 sequence (P02760 20-202): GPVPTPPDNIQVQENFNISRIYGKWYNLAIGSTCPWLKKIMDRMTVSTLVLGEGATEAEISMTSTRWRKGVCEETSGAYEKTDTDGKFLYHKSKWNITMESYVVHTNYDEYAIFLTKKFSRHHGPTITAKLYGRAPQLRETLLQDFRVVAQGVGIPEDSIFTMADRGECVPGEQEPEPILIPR
The experiment in a line: SPR (BIAcore X100), rA1M captured on immobilized anti-His antibody. The class given is binding.

Data set [2] deals with T2, rA1M (recombinant human α1-microglobulin; rA1M-wt and rA1M-035) (Homo sapiens, UniProt P02760, N115D/N36D/R85H).
T2 construct: gene AMBP
T2 sequence (P02760 20-202 N36D/R85H/N115D): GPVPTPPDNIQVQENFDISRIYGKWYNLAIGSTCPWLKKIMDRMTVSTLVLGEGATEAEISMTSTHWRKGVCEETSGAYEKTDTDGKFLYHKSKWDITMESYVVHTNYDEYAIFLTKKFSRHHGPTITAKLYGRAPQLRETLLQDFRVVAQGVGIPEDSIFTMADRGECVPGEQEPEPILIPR
The data set is described as above. Format: binding.

Data set [3] is described as follows: SEC; 24-mL Superose 12 10/30 GL column, 20 mM Tris-HCl, pH 8.0 + 0.15 M NaCl; 100-200 ug protein loaded; unstressed samples at 0.1 mM or samples stored in PBS at the indicated concentrations, temperatures and times.
Another data set has as its target P02760. The description is as above.

With `C=CC1=C(C)C2=Cc3c(C=C)c(C)c4[n]3[Fe]([Cl])[n]3c(c(C)c(CCC(=O)O)c3=CC3=NC(=C4)C(C)=C3CCC(=O)O)=CC1=N2` [heme], the results for the Kd in data set [1] and in data set [2] were 15.8 µM and 4.45 µM, respectively.
As for “rA1M-035, recombinant human α1-microglobulin variant with N17D, R66H and N96D”, in data set [3], the Monomer (%) stood at 93%.

B1: recombinant wild-type human α1-microglobulin (rA1M-wt) (protein)
chain: GPVPTPPDNIQVQENFNISRIYGKWYNLAIGSTCPWLKKIMDRMTVSTLVLGEGATEAEISMTSTRWRKGVCEETSGAYEKTDTDGKFLYHKSKWNITMESYVVHTNYDEYAIFLTKKFSRHHGPTITAKLYGRAPQLRETLLQDFRVVAQGVGIPEDSIFTMADRGECVPGEQEPEPILIPRV
With B1, in the data set with P02760, the Monomer (%) came out at 87%.
